Measurements from patent US9534008B2, “Small molecule compounds that control plant- and insect-pathogenic nematodes” (California Institute of Technology, priority 2011, dated 2017).
Entries after “also recorded” stand apart in the source; their conditions may differ.

How the values were obtained:
[1] = tested on: C. elegans hermaphrodites and males; assay: Spot attraction assay; format: in vivo
Method: The spot attraction assays were conducted according to a previously reported method (Pungaliya et al., PNAS 106:7708-13 (2009); Srinivasan et al., Nature 454:1115-18 (2008), which are hereby incorporated by reference in their entirety). For both C. elegans hermaphrodites and males, 50-60 worms were harvested daily at the fourth larval stage (L4) and stored segregatedly by sex at 20° C. overnight, to be used as young adults the following day. For the competition experiments, two conditions were used: 120 nM ascr#3 and 10 nM icas#3 (Condition 1), or 12 μM ascr#3 and 1 μM icas#3 (Condition 2) in water containing 10% ethanol. Aliquots were stored at −20° C. in 20 μL tubes. 10% ethanol in water was used as control.
Attraction assays with hbas#3 were conducted as previously reported (Srinivasan et al., Nature 454:1115-18 (2008); Pungaliya et al., Proc. Natl. Acad. Sci. U.S.A. 106:7708-13 (2009), which are hereby incorporated by reference in their entirety). For the attraction assays, 50-60 hermaphrodite worms were harvested daily at the early fourth larval stage (L4) and stored at 20° C. overnight to be used as young adults the following day. Hbas#3 was dissolved in water containing 10% ethanol. Aliquots were stored at −20° C. in 20 μL tubes. 10% ethanol in water was used as control.

[2] = tested on: C. elegans hermaphrodites; assay: Quadrant chemotaxis assay; format: in vivo; conditions: FIGS. 48A-B (spot attraction and quadrant chemotaxis)
Method: Chemotaxis to both non-indole and indole ascarosides was assessed on 10 cm four-quadrant petri plates (Wicks et al., Dev. Biol. 221:295-307 (2000), which is hereby incorporated by reference in its entirety). Each quadrant was separated from adjacent ones by plastic spacers (FIG. 1B). Pairs of opposite quadrants were filled with nematode growth medium (NGM) agar containing either indole ascarosides or non-indole ascarosides at different concentrations. Animals were washed gently in a S-basal buffer, placed in the center of a four-quadrant plate with ascarosides in alternating quadrants, and scored after 15 minutes and 30 minutes. A chemotaxis index was calculated as: (the number of animals on ascaroside quadrants minus the number of animals on buffer quadrants)/(total number of animals).
Chemotaxis to hbas#3 was assessed on 10 cm four-quadrant petri plates (Wicks et al., Dev. Biol. 221:295-307 (2000), which is hereby incorporated by reference in its entirety). Each quadrant was separated from adjacent ones by plastic spacers. Pairs of opposite quadrants were filled with nematode growth medium (NGM) agar containing different concentrations of hbas#3. Animals were washed gently in an S-basal buffer and placed in the center of a four-quadrant plate with ascarosides in alternating quadrants, and scored after 15 minutes and 30 minutes. A chemotaxis index was calculated as: (the number of animals on ascaroside quadrants minus the number of animals on buffer quadrants)/(total number of animals).

C. elegans [3] = assay: Ascaroside function (Table 12), C. elegans; format: in vivo, Caenorhabditis elegans; set-up: key to Attract Females/Herm. / Promote Dauer Formation / Attract Males: A very strong result of affecting nematode behavior is designated in the table as “strong.”
Method: (§1) Various ascarosides and ascaroside blends were administered to various nematodes described below (Table 12). […] A very strong result of affecting nematode behavior is designated in the table as “strong.”

Panagrellus redivivus = assay: Ascaroside function (Table 12), Panagrellus redivivus; format: in vivo
Method: as §1

[4] = tested on: several of the tested nematode species; assay: Retention assay, across species; format: in vivo; conditions: 1 nM, 1 μM and 1 mM tested
Method: OP50 E. coli was grown on a standard 5 cm agar plate (made with standard Nematode Growth Medium). The bacterial lawn was 16 mm in diameter and was grown overnight at 20° C. before being used in trials. Two 4 mm spots (0.6 μL) were placed on opposite sides of the bacterial lawn (using a transparent template to guide spot placement), and several minutes elapsed for the liquid to settle in before placing nematodes down on the assay. Recording began immediately upon worm placement. 0.6 μL of the control was placed on one side of the lawn, and 0.6 μL of the experimental cue was placed on the other side of the lawn, changing the location of the cue throughout trials between left/right and top/bottom to avoid bias.
Nematodes were isolated by gender at the L4 stage the day before being used in trials as developed adults. Worms were evenly divided and placed at two points equidistant from the foci of the scoring region. Trials were recorded for 20 minutes, and frames were collected for analysis at 1 frame per second. Results were averaged from at least three different trials. For every nematode species in this study, a different total number of worms (using water in both scoring regions) was tested to determine the minimum number of worms necessary for consistent unbiased results over a 20 minute trial. The total number of worms used in the multiple species assays depended on that species' optimal parameters. 10 worms were used for P. redivivus males and females, 20 worms were used for C. elegans males and O. dolichuridae males, and 14 worms were used for S. glaseri males. The Automated Software was used to compare worm occupancy in each scoring region over time, and the Chemotaxis Index (Bargmann et al., Cell 74:515-27 (1993), which is hereby incorporated by reference in its entirety) was adapted to score preference or avoidance to each ascaroside.
A video camera attached to the microscope produced a digital video stream, which was then analyzed. The ratio of the time the average worm spent in each region of interest was calculated for every trial. For ease of implementation, all worms in a single experiment were assumed to be roughly the same size. Thus worm pixels were counted instead of whole worms, allowing fractions of a worm in the region of interest to be taken into account. It also eliminated the need for a shape-based worm identification algorithm, and allowed each frame to be analyzed independently. A band-pass filter was applied to each frame to eliminate the effect of uneven lighting and also accentuate the worms against the background. The worm was then identified after thresholding the filtered image. Throughout each experiment, the locations and sizes of the regions of interest were known. Through the filtering described above, it is known which pixels are occupied by worms and which ones are not. Thus, the ratio of worm-pixels to all pixels inside the region of interest can be calculated to produce the worm-occupancy ratio. This calculation was done for every frame, giving a plot output of worm-occupancy ratio vs. time for each region.

[5] = tested on: Meloidogyne javanica, M. floridensis, M. incognita, M. hapla; assay: Ascaroside function (Table 12), root-knot nematodes; format: in vivo, Meloidogyne spp.; conditions: for Dispersal (of dauer larvae, infectious juveniles) / Repel Females/Herm.: Meloidogyne javanica, M. floridensis, M. incognita, M. hapla, entries marked *; for act as dispersants and repellants in Meloidogyne species: alone, in concert, and/or in concert with ascr#9 or other ascarosides
Method: as §1

S. glaseri = assay: Ascaroside function (Table 12), S. glaseri; format: in vivo
Method: as §1

C. elegans males = assay: Attraction assay (long-range, point source); conditions: in vivo
Method: 10 cm standard chemotaxis plates were prepared (Bargmann et al., Cell 74:515-27 (1993), which is hereby incorporated by reference in its entirety) and stored at 4° C. until the day before use. Standard 1 cm-diameter copper pipes were sectioned into 1 cm-tall segments to use for the holding chambers. The females/hermaphrodites were isolated overnight, washed 3 times in M9 buffer, and then allowed to wander on a plate pre-conditioned with 50 uL of 1000× streptomycin for 2 hours to kill any bacteria that might produce a false positive attractant. The nematodes were then washed 3 times, and the supernatant from the last wash was placed in a copper chamber, as the control, 1 cm from the border of the 10 cm plate. The nematodes were suspended in M9 within the copper chamber, 1 cm from the border opposite the control chamber. After 6 hours, they were subsequently removed and replaced with 3 μL of 1M sodium azide. 100 C. elegans adult males were isolated overnight, washed several times in ddH2O, and placed at the center of the agar plate. After several hours, males paralyzed within 2 cm of each region were scored. The Chemotaxis Index (Bargmann et al., Cell 74:515-27 (1993), which is hereby incorporated by reference in its entirety) was then used to score male chemotaxis to either point source.

S. feltiae = assay: Ascaroside function (Table 12), S. feltiae; format: in vivo, Steinernema feltiae
Method: as §1

C. elegans [6] = conditions: cited from earlier work
C. elegans [7] = conditions: in vivo; cited from earlier work
[8] = tested on: Heterorhabditis bacteriophora, H. zealandica, H. floridensis; assay: Ascaroside function (Table 12), Heterorhabditis; format: in vivo, Heterorhabditis spp.; conditions: for Dispersal (of dauer larvae, infectious juveniles) / Repel Females/Herm.: Heterorhabditis bacteriophora, H. zealandica, H. floridensis, entries marked *; for act as dispersants and repellants in Heterorhabditis: alone, in concert, and/or in concert with ascr#9 or other ascarosides
Method: as §1

## C[C@H](CCCC/C=C/C(=O)O)O[C@@H]1O[C@@H](C)[C@H](OC(=O)c2ccc(O)cc2)C[C@H]1O [hbas#3, (8R)-(3′R-Hydroxy-5′R-(4-hydroxybenzoyloxy)-6′S-methyl-(2H)-tetrahydropyran-2′-yloxy)non-(2E)-enoic acid]
[1]; dose dependent manner
  attraction of wild-type (N2) hermaphrodites: attracted
[2]
  concentration at which C. elegans is strongly attracted (as low as): ≤ 10 femtomolar
C. elegans [3]
  Attract Females/Herm.: ([very
  Attract Males: ([strong])

## CC1O[C@@H](OCCCCCCCCC(=O)O)C(O)C[C@H]1O (stereo partly drawn) [oscr#10, 9-(3′R,5′R-Dihydroxy-6′S-methyl-(2H)-tetrahydropyran-2′-yloxy)nonanoic acid]
Panagrellus redivivus
  Repel Males: oscr#10

## C[C@@H]1O[C@@H](OCCCCC(=O)O)[C@H](O)C[C@H]1O [oscr#9, 5-(3′R,5′R-Dihydroxy-6′S-methyl-(2H)-tetrahydropyran-2′-yloxy)pentanoic acid]
Panagrellus redivivus
  Attract Males: oscr#9

## CC1O[C@@H](O[C@H](C)CCCCCCC(=O)O)C(O)C[C@H]1O (stereo partly drawn) [ascr#10]
[4]
  preference for areas conditioned by ascaroside: preferred
C. elegans [3]
  Attract Males: ascr#10
Panagrellus redivivus
  Attract Males: ascr#10
[5]
  Dispersal (of dauer larvae, infectious juveniles): ascr#10*
  Repel Females/Herm.: ascr#10*
  act as dispersants and repellants in Meloidogyne species: dispersants and repellants
S. glaseri
  Attract Males: ascr#10

## CC1OC(O[C@H](C)CCCCCCCCCC(=O)O)C(O)CC1O (stereo partly drawn) [ascr#20]
[5]
  Dispersal (of dauer larvae, infectious juveniles): ascr#20*
  Repel Females/Herm.: ascr#20*
  act as dispersants and repellants in Meloidogyne species: dispersants and repellants

## CC1OC(O[C@H](C)CCCCCCCC(=O)O)C(O)CC1O (stereo partly drawn) [ascr#16]
[5]
  Dispersal (of dauer larvae, infectious juveniles): ascr#16*
  Repel Females/Herm.: ascr#16*
  act as dispersants and repellants in Meloidogyne species: dispersants and repellants

## CC1O[C@@H](O[C@H](C)CCCC/C=C/C(=O)O)[C@@H](O)C[C@H]1O (stereo partly drawn) [ascr#3]
[4]
  preference for areas conditioned by ascaroside: preferred
C. elegans males
  C. elegans male chemotaxis to a point source: chemotax towards
  amount eliciting C. elegans male attraction from a distance (as low as): ≤ 5 femtomol
C. elegans [3]
  Attract Males: ascr#3
  Promote Dauer Formation: ([strong])
  Repel Females/Herm.: ascr#3
Panagrellus redivivus
  Attract Males: ascr#3
S. feltiae
  Dispersal (of dauer larvae, infectious juveniles): ascr#3
S. glaseri
  Attract Males: ascr#3
C. elegans [6]; from 1 μM concentration
  most active amount for attraction in C. elegans: ~1 pmol
C. elegans [6]; in vivo
  hermaphrodite repulsion: repels hermaphrodites; also recorded: strongly deter
  male attraction: strongly attracts males
C. elegans [7]
  dauer-inducing activity: promote dauer entry

## C[C@H](CCCCC(=O)O)O[C@@H]1O[C@@H](C)[C@H](OC(=O)c2c[nH]c3ccccc23)C[C@H]1O [icas#1]
[1]; high concentrations, 1 μmol, N2 hermaphrodites and him-5 males
  attraction of both C. elegans sexes: attractive; also recorded: attracted
C. elegans [3]
  Attract Females/Herm.: ([strong])
  Attract Males: ([strong])

## C[C@H](CC/C=C/C(=O)O)O[C@@H]1O[C@@H](C)[C@H](O)C[C@H]1O [ascr#7]
[4]
  preference for areas conditioned by ascaroside: preferred
C. elegans [3]
  Attract Males: ascr#7
Panagrellus redivivus
  Attract Males: ascr#7
S. glaseri
  Attract Males: ascr#7

## C[C@@H]1O[C@@H](OCCC(=O)O)[C@H](O)C[C@H]1O [ascr#5]
C. elegans [3]
  Promote Dauer Formation: ([strong])
  Repel Females/Herm.: ascr#5

## C[C@H](CCCCCCCCCCC(=O)O)O[C@@H]1O[C@@H](C)[C@H](O)C[C@H]1O [ascr#22]
[5]
  Dispersal (of dauer larvae, infectious juveniles): ascr#22*
  Repel Females/Herm.: ascr#22*
  act as dispersants and repellants in Meloidogyne species: dispersants and repellants
[8]
  Dispersal (of dauer larvae, infectious juveniles): ascr#22*
  Repel Females/Herm.: ascr#22*
  act as dispersants and repellants in Heterorhabditis: dispersants and repellants

## CC1OC(O[C@H](C)CCCCCCCCC(=O)O)C(O)CC1O (stereo partly drawn) [ascr#18]
[5]
  Dispersal (of dauer larvae, infectious juveniles): ascr#18*
  Repel Females/Herm.: ascr#18*
  act as dispersants and repellants in Meloidogyne species: dispersants and repellants
[8]
  Dispersal (of dauer larvae, infectious juveniles): ascr#18*
  Repel Females/Herm.: ascr#18*
  act as dispersants and repellants in Heterorhabditis: dispersants and repellants

## CC(=O)CC[C@@H](C)O[C@@H]1O[C@@H](C)[C@H](O)C[C@H]1O[C@@H]1O[C@H](CO)[C@@H](O)[C@H](O)[C@H]1O [ascr#4]
C. elegans [3]
  Promote Dauer Formation: ascr#4
